For assay [1], the system named is NCI-H292 lung cancer cells. Kind of assay: FDA drug screening, complete media vs cholesterol-free media without statin (TABLE 1). The assay is classed as cell-based, human.
For assay [2], the system named is NCI-H292 lung cancer cells. Put plainly: FDA drug screening, complete media vs cholesterol-free media with simvastatin (TABLE 2). Format: cell-based, human.
Setting [3] is: NCI-H292 cells, cholesterol-free media without statin.
[4] abbreviates: complete vs cholesterol-free media, […].
Where [5] appears, read: Complete minus Cholesterol-free, >0 enhanced anti-cancer activity, about 0 neutral, <0 antagonist.
The mark [6] stands for this setting: NCI-H292 cells, cholesterol-free media without statin, FDA drug library screen.
The mark [7] stands for this setting: NCI-H292 cells, complete media, FDA drug library screen.
The mark [8] stands for this setting: NCI-H292 cells, cholesterol-free media with simvastatin 0.04 μM, FDA drug library screen (TABLE 2).
[9] abbreviates: NCI-H292 cells, complete media, FDA drug library screen (TABLE 2).
Where [10] appears, read: complete media minus cholesterol-free media + simvastatin (0.04 μM), >0 enhanced anti-cancer activity, about 0 neutral, <0 antagonist.
Where [11] appears, read: NCI-H292 cells, drug in cholesterol-free media with simvastatin 0.04 μM.
Setting [12] is: NCI-H292 cells, drug in complete media.
[13] abbreviates: complete media vs cholesterol-free media + simvastatin (0.04 μM), >0 enhanced anti-cancer activity, about 0 neutral, <0 antagonist.
The mark [14] stands for this setting: Complete minus Cholesterol-free, greater than 0 enhanced anti-cancer activity, about 0 neutral, below 0 antagonist.
[15] abbreviates: NCI-H292 cells, FDA drug library screen, cholesterol-free media without statin.
[16] abbreviates: NCI-H292 cells, FDA drug library screen, complete media.
Setting [17] is: complete vs cholesterol-free media, >0 enhanced anti-cancer activity, about 0 neutral, <0 antagonist.
[18] abbreviates: NCI-H292 cells, FDA library drug in cholesterol-free media with simvastatin 0.04 μM.
Setting [19] is: NCI-H292 cells, FDA library drug in complete media.
The mark [20] stands for this setting: NCI-H292 cells in complete media.
Setting [21] is: complete media vs cholesterol-free media + simvastatin (0.04 μM), […].
The mark [22] stands for this setting: NCI-H292 cells, cholesterol-free media with simvastatin 0.04 μM, cell growth value in FDA drug screen.
Where [23] appears, read: NCI-H292 cells, complete media, cell growth value in FDA drug screen.
Setting [24] is: complete media minus cholesterol-free media + simvastatin, >0 enhanced anti-cancer activity, about 0 neutral, <0 antagonist.
Where [25] appears, read: Complete minus Cholesterol-free, greater than 0 enhanced anti-cancer activity, about 0 neutral, below 0 antagonists.
[26] abbreviates: NCI-H292 cells in cholesterol-free media without statin.
Setting [27] is: NCI-H292 cells, FDA drug library screen, cholesterol-free media with simvastatin 0.04 μM.

Where a name gives a salt, the structure may show the parent alone. Read-outs that look alike come from different tables or passages of the source.

As to `C/C=C(/C)C(=O)O[C@H]1C(C)=C[C@]23C(=O)[C@@H](C=C(CO)[C@@H](O)[C@]12O)[C@H]1[C@@H](C[C@H]3C)C1(C)C` [Ingenol Mebutate], the Cholesterol-free in assay [1] (setting [3]) stood at 0.6991. The Complete in assay [1] (NCI-H292 cells, complete media) is on record as 0.3918. In addition, the Difference in assay [1] (setting [4]) is on record as −0.31; in assay [2] (complete media minus cholesterol-free media + simvastatin, […]), 0.12. Moreover, the “Cholesterol-free media + simvastatin (0.04 μM)” value in assay [2] (NCI-H292 cells, cholesterol-free media with simvastatin 0.04 μM, […]) was found to be 0.2962. Also, the “Complete Media” value in assay [2] (NCI-H292 cells, complete media, […]) is listed as 0.4169.
As to `CCC(=O)c1c(O)cc(O)cc1O` [Flopropione], the values for the Difference in assay [1] (setting [5]) and in assay [2] (setting [10]) were −0.07 and −0.06, respectively. In addition, the Cholesterol-free in assay [1] (setting [6]) came out at 1.019. This molecule also registered a Complete in assay [1] (setting [7]) of 0.9515. Also, the “Cholesterol-free media + simvastatin (0.04 μM)” value in assay [2] (setting [8]) was 1.103. In assay [2] (setting [9]), the “Complete Media” value was 1.044.
Turning to `COc1ccc2c3c1O[C@H]1C[C@@H](O)C=C[C@@]31CCN(C)C2` [Galanthamine], the Cholesterol-free in assay [1] (setting [3]) amounted to 1.164. In assay [1] (NCI-H292 cells, complete media), this molecule came in with a Complete of 0.829. Further, the Difference in assay [1] (setting [4]) is reported as −0.33; in assay [2] (complete media minus cholesterol-free media + simvastatin (0.04 μM), […]), −0.01. Further, the “Cholesterol-free media + simvastatin (0.04 μM)” value in assay [2] (setting [8]) is recorded as 1.051. Moreover, the “Complete Media” value in assay [2] (setting [9]) is reported as 1.046.
Consider `C=C1CCC2CC1C2(C)C` (stereo not drawn) [β-Pinene], for which the Difference in assay [1] (setting [5]) is recorded as −0.30; in assay [2] (setting [13]), −0.26. The Cholesterol-free in assay [1] (setting [3]) worked out at 0.968. The Complete in assay [1] (NCI-H292 cells, complete media) was 0.6726. The “Cholesterol-free media + simvastatin (0.04 μM)” value in assay [2] (setting [11]) is 1.724. Further, the “Complete Media” value in assay [2] (setting [12]) turned out to be 1.464.
Turning to `COc1cc2c(cc1OC)[C@@H]1Cc3ccc(OC)c(OC)c3CN1CC2` [Tetrahydropalmatine], the Difference in assay [1] (setting [14]) is recorded as −0.19; in assay [2] (setting [13]) it was −0.23. For the same molecule, the Cholesterol-free in assay [1] (setting [15]) was 1.084. Moreover, the Complete in assay [1] (setting [16]) is listed as 0.8984. Also, the “Cholesterol-free media + simvastatin (0.04 μM)” value in assay [2] (setting [11]) came out at 0.9937. The “Complete Media” value in assay [2] (setting [12]) is 0.7686.
In turn, `Cc1ccc(C(=O)c2ccc(CC(=O)O)n2C)cc1` [Tolmetin (sodium dihydrate)] came in with a Cholesterol-free in assay [1] (setting [6]) of 0.7023. In addition, the Complete in assay [1] (setting [7]) is reported as 1.262. The Difference in assay [1] (setting [17]) is 0.56; in assay [2] (setting [13]), −0.35. In addition, in assay [2] (setting [18]), the “Cholesterol-free media + simvastatin (0.04 μM)” value came out at 1.295. Moreover, the “Complete Media” value in assay [2] (setting [19]) turned out to be 0.94.
Turning to Gluconate (Calcium), the Difference is listed as −0.74 in assay [1] (Complete minus Cholesterol-free, […]) and −0.33 in assay [2] (setting [21]). Further, the Complete in assay [1] (setting [20]) is given as 0.8786. Moreover, the “Cholesterol-free media + simvastatin (0.04 μM)” value in assay [2] (setting [18]) is listed as 1.134. For the same molecule, the “Complete Media” value in assay [2] (setting [19]) turned out to be 0.8004.
Regarding `O=C(O)CSc1nnc(Br)n1-c1ccc(C2CC2)c2ccccc12` [Lesinurad], the Difference in assay [1] (setting [14]) is given as −0.12; in assay [2] (setting [24]), 0.03. Moreover, the Cholesterol-free in assay [1] (setting [15]) is recorded as 1.092. This molecule gave a Complete in assay [1] (setting [16]) of 0.9716. The “Cholesterol-free media + simvastatin (0.04 μM)” value in assay [2] (setting [22]) turned out to be 0.9083. Further, the “Complete Media” value in assay [2] (setting [23]) was found to be 0.9388.
In the case of `CC#CCn1c(N2CCC[C@@H](N)C2)nc2c1c(=O)n(Cc1nc(C)c3ccccc3n1)c(=O)n2C` [Linagliptin], the Difference in assay [1] (setting [5]) was −0.23; in assay [2] (setting [10]), −0.03. The same molecule registered a Cholesterol-free in assay [1] (setting [3]) of 1.072. This molecule also yielded a Complete in assay [1] (NCI-H292 cells, complete media) of 0.8404. For the same molecule, the “Cholesterol-free media + simvastatin (0.04 μM)” value in assay [2] (setting [8]) came to 1.095. Further, in assay [2] (setting [9]), the “Complete Media” value is recorded as 1.067.
With `C=CC(=O)Nc1cc(Nc2nccc(-c3cn(C)c4ccccc34)n2)c(OC)cc1N(C)CCN(C)C` [Osimertinib], the Difference is −0.14 in assay [1] (setting [14]) and 0.05 in assay [2] (setting [24]). In assay [1] (setting [15]), this molecule returned a Cholesterol-free of 0.477. The Complete in assay [1] (setting [16]) was 0.3332. The “Cholesterol-free media + simvastatin (0.04 μM)” value in assay [2] (setting [22]) amounted to 0.2666. Besides, the “Complete Media” value in assay [2] (setting [23]) turned out to be 0.3123.
Regarding `O.O.O.O.O=P([O-])(O)C(Cl)(Cl)P(=O)([O-])O.[Na+].[Na+]` [Clodronate (disodium tetrahydrate)], the Difference is on record as −0.05 in assay [1] (setting [5]) and 0.09 in assay [2] (setting [24]). For the same molecule, the Cholesterol-free in assay [1] (setting [6]) is recorded as 1.08. In assay [1] (setting [7]), the Complete is 1.034. For the same molecule, the “Cholesterol-free media + simvastatin (0.04 μM)” value in assay [2] (setting [22]) is listed as 0.8439. Also, the “Complete Media” value in assay [2] (setting [23]) was determined as 0.9326.
Take `CN1C(CCl)Nc2cc(Cl)c(S(N)(=O)=O)cc2S1(=O)=O` (centres unmarked) [Methyclothiazide]: the Difference in assay [1] (setting [5]) is −0.24; in assay [2] (setting [10]), −0.07. The Cholesterol-free in assay [1] (setting [3]) came to 1.096. The Complete in assay [1] (NCI-H292 cells, complete media) is reported as 0.856. In assay [2] (setting [8]), the “Cholesterol-free media + simvastatin (0.04 μM)” value amounted to 1.147. The “Complete Media” value in assay [2] (setting [9]) is listed as 1.081.
Consider Valemetostat (tosylate), for which, in assay [1] (setting [3]), the Cholesterol-free came to 1.464. The same molecule showed a Complete in assay [1] (NCI-H292 cells, complete media) of 1.052. Also, the Difference in assay [1] (setting [4]) is given as −0.41; in assay [2] (setting [21]), −0.26. The “Cholesterol-free media + simvastatin (0.04 μM)” value in assay [2] (setting [11]) is on record as 1.195. For the same molecule, the “Complete Media” value in assay [2] (setting [12]) amounted to 0.9379.
Turning to `Cc1nc2c([nH]1)-c1ccccc1N(C(=O)c1ccc(NC(=O)c3ccccc3-c3ccccc3)cc1)CC2` [Conivaptan (hydrochloride)], the Difference is −0.65 in assay [1] (setting [25]) and −0.15 in assay [2] (setting [13]). In assay [1] (setting [26]), this molecule had a Cholesterol-free of 1.641. In addition, the Complete in assay [1] (setting [20]) amounted to 0.989. Moreover, in assay [2] (setting [27]), the “Cholesterol-free media + simvastatin (0.04 μM)” value was determined as 1.147. Besides, the “Complete Media” value in assay [2] (setting [16]) stood at 1.002.
Turning to `COc1cc(NS(=O)(=O)c2ccc(N)cc2)nc(OC)n1` [Sulfadimethoxine], the Cholesterol-free in assay [1] (setting [3]) was 1.234. In assay [1] (NCI-H292 cells, complete media), this molecule displayed a Complete of 0.8763. Also, the Difference in assay [1] (complete vs cholesterol-free media, greater than 0 enhanced anti-cancer activity, about 0 neutral, below 0 antagonists) is −0.36; in assay [2] (setting [24]) it was 0.15. Besides, the “Cholesterol-free media + simvastatin (0.04 μM)” value in assay [2] (setting [27]) turned out to be 0.819. In addition, in assay [2] (setting [16]), the “Complete Media” value is given as 0.9685.
For `C[N+]1(C)[C@@H]2CC(OC(=O)C(O)(c3cccs3)c3cccs3)C[C@H]1[C@@H]1O[C@@H]12.[Br-]` (some centres unmarked) [Tiotropium (Bromide)], in assay [1], the Cholesterol-free came to 1.101, the Complete stood at 0.8685 and the Difference is −0.23. Besides, in assay [2], the “Cholesterol-free media + simvastatin (0.04 μM)” value was determined as 2.468, the “Complete Media” value came out at 1.196 and the Difference is −1.27.
As to `CCCCc1nc(C)c(CC(=S)N(C)C)c(=O)n1Cc1ccc(-c2ccccc2-c2nnn[nH]2)cc1` [Fimasartan], the figures for the Difference in assay [1] (setting [14]) and in assay [2] (setting [10]) were −0.08 and −0.05, respectively. Besides, in assay [1] (setting [15]), the Cholesterol-free is reported as 1.327. In assay [1] (setting [16]), this molecule yielded a Complete of 1.249. Also, in assay [2] (setting [8]), the “Cholesterol-free media + simvastatin (0.04 μM)” value is on record as 1.27. For the same molecule, in assay [2] (setting [9]), the “Complete Media” value is 1.222.
`O=S(=O)(O)c1cc(O)ccc1O` [Ethamsylate]: the Difference in assay [1] (setting [25]) is −0.53; in assay [2] (setting [13]) it was −0.15. This molecule also returned a Cholesterol-free in assay [1] (setting [26]) of 1.652. In addition, the Complete in assay [1] (setting [20]) came to 1.118. Further, in assay [2] (setting [27]), the “Cholesterol-free media + simvastatin (0.04 μM)” value is recorded as 1.397. In addition, in assay [2] (setting [16]), the “Complete Media” value stood at 1.245.
`Cc1ccnc2c1NC(=O)c1cccnc1N2C1CC1` [Nevirapine] registered a Cholesterol-free in assay [1] (setting [6]) of 0.7658. The Complete in assay [1] (setting [7]) came to 1.137. For the same molecule, the Difference in assay [1] (setting [17]) is listed as 0.37; in assay [2] (setting [13]), −0.46. Further, the “Cholesterol-free media + simvastatin (0.04 μM)” value in assay [2] (setting [18]) turned out to be 1.384. Further, the “Complete Media” value in assay [2] (setting [19]) turned out to be 0.9254.

Source of the values: US20250144067A1, “PERSONALIZED STARVATION THERAPY FOR CANCER” (Faeth Therapeutics, Inc., priority 2021, published 2025).
